Experimental data taken from publication PMC5064435, “Inhibition of endoplasmic reticulum glucosidases is required for in vitro and in vivo dengue antiviral activity by the iminosugar UV-4” (Antiviral Research, 2016).
pIC50: −log10 of the molar value.

How the values were obtained:
Format in all cases: biochemical
[1] = molecular target: T1, Human lysosome (α-glucosidase) (Homo sapiens, UniProt P10253); test: enzyme inhibition assay; details: read-out: IC50 ^a / MON-6d-DGJ
T1 construct: gene GAA
From the text: enzyme inhibition assay on Human lysosome (α-glucosidase)

[2] = molecular target: T2, ceramide glucosyltransferase (HL60 glucosyltransferase) (Homo sapiens, UniProt Q16739); test: enzyme inhibition assay, enzyme isolated from HL60 cells; details: read-out: IC50 ^a / MON-6d-DGJ
T2 construct: gene UGCG; native enzyme isolated from human promyelocytic HL60 cells
T2 sequence (Q16739 1-394): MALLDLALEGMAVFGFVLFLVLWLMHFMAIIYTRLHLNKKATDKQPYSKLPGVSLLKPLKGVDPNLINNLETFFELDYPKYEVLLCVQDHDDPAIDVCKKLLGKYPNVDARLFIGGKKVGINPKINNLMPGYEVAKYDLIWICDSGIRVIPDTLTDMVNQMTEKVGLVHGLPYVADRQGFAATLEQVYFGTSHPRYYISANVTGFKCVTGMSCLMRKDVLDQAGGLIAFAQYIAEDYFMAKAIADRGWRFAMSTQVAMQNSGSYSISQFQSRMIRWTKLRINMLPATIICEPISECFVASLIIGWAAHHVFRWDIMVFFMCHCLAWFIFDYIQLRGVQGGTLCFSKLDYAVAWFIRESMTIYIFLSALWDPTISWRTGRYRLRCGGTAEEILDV
From the text: enzyme inhibition assay, enzyme isolated from HL60 cells on ceramide glucosyltransferase (HL60 glucosyltransferase)

[3] = molecular target: T3, Rat intestinal isomaltase (Rattus norvegicus, UniProt P23739); test: enzyme inhibition assay; details: read-out: IC50 ^a / MON-6d-DGJ
T3 construct: gene Si; native rat intestinal enzyme; isomaltase (N-terminal) subunit of sucrase-isomaltase
From the text: enzyme inhibition assay on Rat intestinal isomaltase

[4] = molecular target: T4, Human lysosome (α-galactosidase) (Homo sapiens, UniProt P06280); test: enzyme inhibition assay; details: read-out: IC50 ^a / MON-6d-DGJ
T4 construct: gene GLA
T4 sequence (P06280 32-429): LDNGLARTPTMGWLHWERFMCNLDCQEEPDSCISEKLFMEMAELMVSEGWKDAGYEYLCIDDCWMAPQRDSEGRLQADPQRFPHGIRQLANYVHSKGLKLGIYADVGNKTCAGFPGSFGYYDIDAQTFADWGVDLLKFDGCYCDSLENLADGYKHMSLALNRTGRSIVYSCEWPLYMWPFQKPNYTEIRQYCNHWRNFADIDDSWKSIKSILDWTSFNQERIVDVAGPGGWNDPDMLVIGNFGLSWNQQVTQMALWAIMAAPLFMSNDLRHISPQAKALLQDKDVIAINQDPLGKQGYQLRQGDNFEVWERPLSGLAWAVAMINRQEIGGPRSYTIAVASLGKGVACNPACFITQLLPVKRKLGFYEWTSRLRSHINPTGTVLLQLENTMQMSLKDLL
From the text: enzyme inhibition assay on Human lysosome (α-galactosidase)

Rat intestinal maltase = molecular target: T5, Rat intestinal maltase; test: enzyme inhibition assay; details: IC50 not reached up to maximal dose; read-out: IC50 ^a / MON-6d-DGJ
T5 construct: gene Mgam; native rat intestinal enzyme activity; maltase may be maltase-glucoamylase and/or sucrase-isomaltase
From the text: enzyme inhibition assay on Rat intestinal maltase

Rat intestinal sucrase = molecular target: T6, Rat intestinal sucrase (Rattus norvegicus, UniProt P23739); test: enzyme inhibition assay; details: read-out: IC50 ^a / MON-6d-DGJ
T6 construct: gene Si; native rat intestinal enzyme; sucrase (C-terminal) subunit of sucrase-isomaltase
From the text: enzyme inhibition assay on Rat intestinal sucrase

Mouse ER α-glucosidase I = molecular target: T7, Mouse ER α-glucosidase I (Mus musculus, UniProt Q80UM7); test: enzyme inhibition assay, purified enzyme; details: read-out: IC50 ^a / MON-6d-DGJ
T7 construct: gene Mogs
T7 sequence (Q80UM7 1-834): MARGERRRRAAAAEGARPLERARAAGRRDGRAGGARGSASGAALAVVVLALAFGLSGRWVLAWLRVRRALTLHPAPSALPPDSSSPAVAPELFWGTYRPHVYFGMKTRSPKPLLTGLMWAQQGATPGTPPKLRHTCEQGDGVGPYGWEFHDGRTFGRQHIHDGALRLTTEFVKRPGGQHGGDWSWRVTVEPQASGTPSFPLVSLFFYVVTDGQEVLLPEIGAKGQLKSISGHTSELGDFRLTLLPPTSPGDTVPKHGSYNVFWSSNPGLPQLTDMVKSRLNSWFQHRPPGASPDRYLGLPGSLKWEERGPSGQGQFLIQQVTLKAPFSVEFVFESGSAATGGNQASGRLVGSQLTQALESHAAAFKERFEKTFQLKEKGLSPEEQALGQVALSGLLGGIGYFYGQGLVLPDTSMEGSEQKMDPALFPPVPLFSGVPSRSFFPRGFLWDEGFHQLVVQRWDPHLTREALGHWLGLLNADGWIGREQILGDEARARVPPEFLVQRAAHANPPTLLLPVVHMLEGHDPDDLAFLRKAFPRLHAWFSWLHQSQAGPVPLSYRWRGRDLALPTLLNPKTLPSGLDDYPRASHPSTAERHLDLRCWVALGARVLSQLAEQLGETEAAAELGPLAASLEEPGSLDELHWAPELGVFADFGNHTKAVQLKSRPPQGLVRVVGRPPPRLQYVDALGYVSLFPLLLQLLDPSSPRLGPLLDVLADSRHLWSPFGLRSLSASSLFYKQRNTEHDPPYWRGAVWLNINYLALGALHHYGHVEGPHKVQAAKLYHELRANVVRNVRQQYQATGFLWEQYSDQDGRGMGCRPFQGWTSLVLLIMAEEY
From the text: enzyme inhibition assay, purified enzyme on Mouse ER α-glucosidase I

[5] = molecular target: T8, Mouse ER α-glucosidase II (Mus musculus, UniProt Q8BHN3); test: enzyme inhibition assay, purified enzyme; details: read-out: IC50 ^a / MON-6d-DGJ
T8 construct: gene Ganab; with Glucosidase 2 subunit beta
T8 sequence (Q8BHN3 33-944): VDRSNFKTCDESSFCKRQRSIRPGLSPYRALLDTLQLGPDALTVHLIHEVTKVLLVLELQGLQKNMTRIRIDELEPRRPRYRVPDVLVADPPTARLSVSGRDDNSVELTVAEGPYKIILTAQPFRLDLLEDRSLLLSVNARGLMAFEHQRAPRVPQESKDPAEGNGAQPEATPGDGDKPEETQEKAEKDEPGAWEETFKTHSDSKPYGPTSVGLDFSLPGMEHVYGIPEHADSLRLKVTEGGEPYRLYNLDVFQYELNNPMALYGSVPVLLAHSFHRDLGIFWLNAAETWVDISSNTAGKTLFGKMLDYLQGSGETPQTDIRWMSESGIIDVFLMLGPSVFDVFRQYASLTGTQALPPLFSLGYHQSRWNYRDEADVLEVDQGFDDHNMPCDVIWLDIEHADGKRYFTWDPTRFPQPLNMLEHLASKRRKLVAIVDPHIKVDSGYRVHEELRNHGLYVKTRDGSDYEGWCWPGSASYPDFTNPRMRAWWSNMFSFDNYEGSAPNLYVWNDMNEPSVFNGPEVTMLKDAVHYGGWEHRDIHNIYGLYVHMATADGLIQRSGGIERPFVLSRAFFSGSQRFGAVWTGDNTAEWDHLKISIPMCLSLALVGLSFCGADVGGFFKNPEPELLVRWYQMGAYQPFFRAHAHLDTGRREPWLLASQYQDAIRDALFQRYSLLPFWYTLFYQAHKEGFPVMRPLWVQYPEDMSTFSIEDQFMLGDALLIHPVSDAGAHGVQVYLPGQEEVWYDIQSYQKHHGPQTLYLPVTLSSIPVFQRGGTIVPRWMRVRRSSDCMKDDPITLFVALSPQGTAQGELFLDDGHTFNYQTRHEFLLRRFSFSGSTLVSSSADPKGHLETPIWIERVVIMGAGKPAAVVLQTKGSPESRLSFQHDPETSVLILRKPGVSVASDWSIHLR
T8 sequence (O08795 15-521 partner): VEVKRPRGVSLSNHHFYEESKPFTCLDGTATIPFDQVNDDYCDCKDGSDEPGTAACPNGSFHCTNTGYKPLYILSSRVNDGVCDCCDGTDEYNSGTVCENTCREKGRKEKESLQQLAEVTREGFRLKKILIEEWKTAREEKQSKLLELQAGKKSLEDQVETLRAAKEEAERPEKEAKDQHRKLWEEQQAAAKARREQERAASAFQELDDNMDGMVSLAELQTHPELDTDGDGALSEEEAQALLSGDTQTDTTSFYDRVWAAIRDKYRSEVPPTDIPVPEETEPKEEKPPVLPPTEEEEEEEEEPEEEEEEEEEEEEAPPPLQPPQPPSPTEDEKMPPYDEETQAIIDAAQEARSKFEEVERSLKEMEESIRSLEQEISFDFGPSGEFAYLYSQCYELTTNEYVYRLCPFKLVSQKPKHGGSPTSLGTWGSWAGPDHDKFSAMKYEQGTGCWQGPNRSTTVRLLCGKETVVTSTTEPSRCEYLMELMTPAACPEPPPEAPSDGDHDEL
From the text: enzyme inhibition assay, purified enzyme on Mouse ER α-glucosidase II

T6 sequence (P23739 1014-1841 limits assumed): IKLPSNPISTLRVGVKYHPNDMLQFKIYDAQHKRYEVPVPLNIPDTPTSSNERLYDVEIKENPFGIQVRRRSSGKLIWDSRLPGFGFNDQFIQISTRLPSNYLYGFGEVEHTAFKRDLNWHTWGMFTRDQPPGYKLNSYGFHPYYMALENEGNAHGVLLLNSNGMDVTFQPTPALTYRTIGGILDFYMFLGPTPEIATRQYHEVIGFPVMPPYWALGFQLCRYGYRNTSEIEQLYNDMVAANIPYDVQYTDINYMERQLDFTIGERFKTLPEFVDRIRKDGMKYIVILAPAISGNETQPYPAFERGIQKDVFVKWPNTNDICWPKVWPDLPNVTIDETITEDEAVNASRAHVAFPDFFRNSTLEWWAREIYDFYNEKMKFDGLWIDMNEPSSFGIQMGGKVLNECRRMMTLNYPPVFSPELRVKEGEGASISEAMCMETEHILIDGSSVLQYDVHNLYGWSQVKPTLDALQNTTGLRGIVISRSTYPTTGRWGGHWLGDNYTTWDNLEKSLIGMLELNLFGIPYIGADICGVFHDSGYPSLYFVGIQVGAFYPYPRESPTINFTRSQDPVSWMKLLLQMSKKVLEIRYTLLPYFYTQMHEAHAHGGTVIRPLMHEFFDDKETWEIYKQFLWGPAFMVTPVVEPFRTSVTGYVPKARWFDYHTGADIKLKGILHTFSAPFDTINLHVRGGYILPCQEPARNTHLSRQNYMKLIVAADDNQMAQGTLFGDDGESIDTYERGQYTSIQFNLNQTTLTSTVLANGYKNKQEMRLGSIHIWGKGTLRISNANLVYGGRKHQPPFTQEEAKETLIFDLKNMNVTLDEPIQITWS
T3 sequence (P23739 1-1013 limits assumed): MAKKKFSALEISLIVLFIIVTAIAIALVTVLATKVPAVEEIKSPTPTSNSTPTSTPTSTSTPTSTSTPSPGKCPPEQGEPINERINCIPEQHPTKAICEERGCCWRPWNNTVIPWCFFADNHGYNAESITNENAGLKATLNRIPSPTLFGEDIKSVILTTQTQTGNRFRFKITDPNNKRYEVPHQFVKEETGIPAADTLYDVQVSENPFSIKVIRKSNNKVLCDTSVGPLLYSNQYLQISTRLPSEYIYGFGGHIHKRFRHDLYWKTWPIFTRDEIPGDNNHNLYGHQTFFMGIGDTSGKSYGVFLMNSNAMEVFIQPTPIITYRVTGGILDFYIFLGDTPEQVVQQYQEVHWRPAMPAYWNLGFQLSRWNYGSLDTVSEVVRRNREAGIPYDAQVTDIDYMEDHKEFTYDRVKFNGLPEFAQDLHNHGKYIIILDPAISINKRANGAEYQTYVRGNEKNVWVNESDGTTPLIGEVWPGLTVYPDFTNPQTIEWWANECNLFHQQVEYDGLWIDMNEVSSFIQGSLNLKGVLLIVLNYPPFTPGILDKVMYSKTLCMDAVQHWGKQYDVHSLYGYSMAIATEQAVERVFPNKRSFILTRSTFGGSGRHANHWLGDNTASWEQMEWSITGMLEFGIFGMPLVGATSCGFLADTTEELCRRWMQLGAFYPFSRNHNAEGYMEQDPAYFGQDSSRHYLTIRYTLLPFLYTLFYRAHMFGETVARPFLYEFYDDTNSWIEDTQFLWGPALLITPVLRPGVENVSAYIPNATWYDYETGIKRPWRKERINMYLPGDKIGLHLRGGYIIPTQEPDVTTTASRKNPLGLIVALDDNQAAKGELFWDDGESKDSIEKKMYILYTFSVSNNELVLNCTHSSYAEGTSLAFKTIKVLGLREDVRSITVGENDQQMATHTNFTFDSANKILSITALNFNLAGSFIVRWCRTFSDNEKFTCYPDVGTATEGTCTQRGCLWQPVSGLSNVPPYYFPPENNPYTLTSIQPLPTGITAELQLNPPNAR

pIC50 [1]: < 2.98
pIC50 [2]: 4.05
pIC50 [3]: < 2.98
pIC50 [4]: 3.59
pIC50 (Rat intestinal maltase): < 2.98
pIC50 (Rat intestinal sucrase): < 2.98
pIC50 (Mouse ER α-glucosidase I): < 2.98
pIC50 [5]: < 2.98
Structure (SMILES): COCCCCCCCCCN1C[C@H](O)[C@@H](O)[C@@H](O)[C@H]1C [MON-6d-DGJ, N-(9′-methoxynonyl)-1,6-dideoxygalactonojirimycin]
